Assay [1] addresses T1, MMP2 (Homo sapiens, UniProt P08253).
T1 sequence (P08253 110-660): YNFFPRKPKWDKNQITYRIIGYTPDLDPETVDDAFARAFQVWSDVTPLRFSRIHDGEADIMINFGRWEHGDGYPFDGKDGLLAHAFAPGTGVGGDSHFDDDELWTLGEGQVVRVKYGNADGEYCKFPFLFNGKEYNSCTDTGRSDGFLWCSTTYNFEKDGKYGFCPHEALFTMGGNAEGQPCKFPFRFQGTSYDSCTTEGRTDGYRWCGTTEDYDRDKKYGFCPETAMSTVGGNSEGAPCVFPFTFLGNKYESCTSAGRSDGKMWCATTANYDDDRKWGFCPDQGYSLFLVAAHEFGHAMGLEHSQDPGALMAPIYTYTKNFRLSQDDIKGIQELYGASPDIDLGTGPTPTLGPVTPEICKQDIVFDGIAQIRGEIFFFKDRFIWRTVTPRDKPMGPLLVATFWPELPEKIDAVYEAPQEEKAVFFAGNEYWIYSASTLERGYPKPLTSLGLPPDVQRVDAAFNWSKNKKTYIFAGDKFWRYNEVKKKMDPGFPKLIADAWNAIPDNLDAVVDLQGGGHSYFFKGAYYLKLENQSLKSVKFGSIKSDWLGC
The experiment in a line: Inhibitory effects on human MMP2 (Method 2), enzyme assay with MOCAc-Pro-Leu-Gly-Leu-A2pr(Dnp)-Ala-Arg-NH2 substrate, 384-well. In kind it is biochemical. Particulars: Test Example No. 1-2 (Method 2, 384-well microplate).

The target in the next assay is human MMP12 (Homo sapiens, UniProt P39900). The experiment in a line: Inhibitory effects on human MMP12, enzyme assay. In kind it is biochemical.
human MMP12, sequence (P39900 106-470): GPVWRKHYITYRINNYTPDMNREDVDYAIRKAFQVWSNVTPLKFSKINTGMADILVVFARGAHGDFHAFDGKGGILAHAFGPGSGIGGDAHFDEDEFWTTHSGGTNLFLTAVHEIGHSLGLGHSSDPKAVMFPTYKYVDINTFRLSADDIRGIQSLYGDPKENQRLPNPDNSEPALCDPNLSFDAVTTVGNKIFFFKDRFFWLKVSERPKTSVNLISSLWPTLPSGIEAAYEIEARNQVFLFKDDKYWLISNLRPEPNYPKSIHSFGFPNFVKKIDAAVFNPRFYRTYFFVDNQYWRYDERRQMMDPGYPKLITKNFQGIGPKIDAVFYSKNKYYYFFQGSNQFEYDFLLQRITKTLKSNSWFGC
Assay [2] has as its target T1, MMP2. Nature of the assay: Inhibitory effects on human MMP2 (Method 1), enzyme assay with MOCAc-Pro-Leu-Gly-Leu-A2pr(Dnp)-Ala-Arg-NH2 substrate, 96-well. Particulars: Test Example No. 1-1 (Method 1, 96-well microplate); read-out: Human MMP2, IC50. In kind it is biochemical. How it is done: In a reaction solution [50 mmol/L Tris-HCl (pH 7.5), 150 mmol/L NaCl, 10 mmol/L CaCl2, 0.05% Brij L23], 100 μg/mL human recombinant MMP2 enzyme and 1 mmol/L 4-Aminophenylmercuric acetate were mixed together, and reacted at 37° C. for 60 minutes. The human MMP2 activated through the reaction was poured into a 96-well microplate to reach a final concentration of 0.7 or 7 ng/mL.

In another assay the target is human MMP13 (Homo sapiens, UniProt P45452). Nature of the assay: Inhibitory effects on human MMP13, enzyme assay. The class given is biochemical. Particulars: Test Example 8. How it is done:
The human MMP13 activated through the reaction was poured into a 96-well microplate to reach a final concentration of 5 ng/mL. […] Then, MOCAc-[…] was added to reach a final concentration of 6 μmol/L, and enzymatic reaction was initiated.

Assay [3] concerns the target T1, MMP2. Particulars: reported, see NPTL 19; cited from earlier work.
Where [4] appears, read: Test Example 7, read-out: Human MMP12, IC50.

pIC50: −log10 of the molar value. Like-named read-outs stand apart in the source and are kept apart here. *1 amine or outer side, *2 acyl side, *3 side chain or, on linkers, in order; H or OH if unused. Where a SMILES comes first, the peptide text is derived from it. [ ]: non-standard residue; d: D form. The star is where a group is joined. PhSO2(4-NHCOPh(4-CONH2)) = NC(=O)c1ccc(C(=O)Nc2ccc(S(=O)(=O)*)cc2)cc1; X1 = O=C(Nc1ccc(S(=O)(=O)*)cc1)c1ccc(OC(F)(F)F)cc1; d(γGlu) = O=C(O)[C@@H](CCC(=O)[*:2])N[*:1]; Pro(4S-NH2) = N[C@@H]1CN[C@H](C(=O)O)C1; NMeI = CC[C@H](C)[C@H](NC)C(=O)O; NMeE = CN[C@@H](CCC(=O)O)C(=O)O; β3hP = O=C(O)C[C@@H]1CCCN1; Dab = NCC[C@H](N)C(=O)O

What is called pIC50 is the IC50 on a negative log10 scale, so that one unit is a factor of ten.

Compound `CC(C)C[C@H](NC(=O)[C@@H]1C[C@H](N)CN1C(=O)CC[C@@H](NS(=O)(=O)c1ccc(NC(=O)c2ccc(C(N)=O)cc2)cc1)C(=O)O)C(=O)N(C)[C@@H](CCC(=O)O)C(=O)N[C@H](CCCNC(=N)N)C(N)=O` [Compound 29] ({PhSO2(4-NHCOPh(4-CONH2))-d(γGlu)}-[Pro(4S-NH2)]L[NMeE][dR]-NH2; C-terminus assumed) had a pIC50 at MMP2 [1] of 9.85.

As to `CC[C@H](C)[C@@H](C(=O)NCCCCC(N)=O)N(C)C(=O)[C@H](CC(C)C)NC(=O)[C@@H]1C[C@H](N)CN1C(=O)CC[C@@H](NS(=O)(=O)c1ccc(NC(=O)c2ccc(C(N)=O)cc2)cc1)C(=O)O` [Compound 9], the pIC50 at human MMP12 (setting [4]) was 6.80; on MMP2 [2] it was 9.54; on human MMP13 it was 6.60.

In the case of `CC(C)C[C@H](NC(=O)[C@@H]1C[C@H](N)CN1C(=O)CC[C@@H](NS(=O)(=O)c1ccc(NC(=O)c2ccc(C(N)=O)cc2)cc1)C(=O)O)C(=O)N(C)[C@@H](CCC(=O)O)C(=O)NCCCCC(N)=O` [Compound 1, N-[4-(4-carbamoylbenzamido)benzene-1-sulfonyl]-D-γ-glutamyl-(4S)-4-amino-L-prolyl-L-1 eucyl-N-(5-amino-5-oxopentyl)-N^2-methyl-L-α-glutamine], the pIC50 on human MMP12 was 6.60; on MMP2 [2] it was 9.66; against human MMP13 it was 6.62.

Take `CC[C@H](C)[C@@H](C(=O)N1CCC[C@H]1CC(N)=O)N(C)C(=O)[C@H](CC(C)C)NC(=O)[C@H](CCN)NC(=O)CC[C@@H](NS(=O)(=O)c1ccc(NC(=O)c2ccc(OC(F)(F)F)cc2)cc1)C(=O)O` [Compound 701] ({X1-d(γGlu)}-[Dab]L[NMeI][β3hP]-NH2; N-terminus assumed): the results for the pIC50 at human MMP12 (setting [4]), at MMP2 [2] and against human MMP13 were 6.77, 9.57 and 6.94, respectively.

With “IIe-Ser-Tyr-Gly-Asn-Asp-Ala-Leu-Met-Pro [APP-IP]”, the MMP2-inhibitory effect result on MMP2 [3] is “selective MMP2-inhibitory effect”.

Values taken from patent US20240199692A1 (priority 2019, published 2024).
